Test results as given in article PMC11111852, “Exploration of the role of the penicillin binding protein 2c (Pbp2c) in inducible β-lactam resistance in Corynebacteriaceae” (Frontiers in Microbiology, 2024).

Experiments:
Pbp2c = biological target: T1, Pbp2c (Corynebacterium jeikeium, UniProt Q4JX88); assay: electrospray mass spectrometry of covalent adduct; assay type: binding; conditions: 20 uM protein, 200 uM drug, 1 h, 20 °C, 100 mM MES pH 6.4
T1 construct: residues 32-593 without N-terminal transmembrane segment; E. coli BL21(DE3); 62,975 Da; monomer

BlaCor = biological target: T2, BlaCor (Corynebacterium jeikeium, UniProt Q4JX89); assay: electrospray mass spectrometry of covalent adduct; assay type: binding; conditions: not hydrolysed
T2 construct: gene jk0411; 276-residue protein with N-terminal His6-TEV tag (pET-TEV), E. coli BL21(DE3), observed mass 32,825 Da, monomer
T2 sequence (Q4JX89 entry or part of it): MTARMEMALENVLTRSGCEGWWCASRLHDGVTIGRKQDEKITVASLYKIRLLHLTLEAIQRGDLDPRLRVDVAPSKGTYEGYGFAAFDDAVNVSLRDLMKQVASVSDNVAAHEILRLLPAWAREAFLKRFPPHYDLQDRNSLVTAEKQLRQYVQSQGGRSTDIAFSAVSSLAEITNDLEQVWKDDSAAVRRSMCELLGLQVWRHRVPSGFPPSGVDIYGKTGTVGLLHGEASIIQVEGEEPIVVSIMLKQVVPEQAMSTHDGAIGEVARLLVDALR

T1 sequence (Q4JX88 entry or part of it): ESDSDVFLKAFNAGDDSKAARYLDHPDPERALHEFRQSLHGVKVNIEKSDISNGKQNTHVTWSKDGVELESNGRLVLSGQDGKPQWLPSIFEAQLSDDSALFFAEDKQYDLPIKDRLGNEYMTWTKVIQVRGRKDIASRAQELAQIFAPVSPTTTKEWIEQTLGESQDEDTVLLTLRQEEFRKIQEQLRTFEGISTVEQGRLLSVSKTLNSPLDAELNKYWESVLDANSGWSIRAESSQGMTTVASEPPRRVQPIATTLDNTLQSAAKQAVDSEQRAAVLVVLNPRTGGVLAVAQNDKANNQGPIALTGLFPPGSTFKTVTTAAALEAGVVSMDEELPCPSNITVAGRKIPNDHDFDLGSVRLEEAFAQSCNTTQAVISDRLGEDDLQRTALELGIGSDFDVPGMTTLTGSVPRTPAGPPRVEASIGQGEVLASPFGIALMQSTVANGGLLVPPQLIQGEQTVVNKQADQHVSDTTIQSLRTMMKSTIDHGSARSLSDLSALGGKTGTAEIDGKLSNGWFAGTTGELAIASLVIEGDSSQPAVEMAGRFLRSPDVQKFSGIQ

Compound	electrospray mass spectrometry of covalent adduct (Pbp2c)	electrospray mass spectrometry of covalent adduct (BlaCor)
C[C@@H](O)[C@H]1C(=O)N2C(C(=O)O)=C(S[C@@H]3CN[C@H](C(=O)N(C)C)C3)[C@H](C)[C@H]12 [meropenem]	Adducts matching increments of the average mass of meropenem were also detected	
O=C(Cc1cccs1)N[C@@H]1C(=O)N2C(C(=O)O)=C(/C=C/c3ccc([N+](=O)[O-])cc3[N+](=O)[O-])CS[C@H]12 [nitrocefin]		the nitrocefin-BlaCor adduct was detected by mass spectrometry (data not shown)
C[C@@H](O)[C@H]1C(=O)N2C(C(=O)O)=C(SCCN=CN)C[C@H]12 [imipenem]	Incubation of Pbp2c with imipenem allowed the detection of adducts	
